Experimental data taken from patent US11939320B2, “Modulators of the integrated stress pathway” (Calico Life Sciences LLC, priority 2017, dated 2024).

The molecules below were run on HEK293T cells carrying the ATF4 luciferase reporter (assay: ATF4-Luc assay (in vitro model of VWMD)). Conditions: Homo sapiens, HEK-293T; HEK293T cells with ATF4 5'-UTR firefly luciferase reporter; 1 μg/mL tunicamycin; 7 hours; One Glo luminescence.
Format: cell-based
Description: In order to test exemplary compounds of the invention in a cellular context, a stable VWMD cell line was first constructed. The ATF4 reporter was prepared by fusing the human full-length ATF4 5′-UTR (NCBI Accession No. BC022088.2) in front of the firefly luciferase (FLuc) coding sequence lacking the initiator methionine as described in Sidrauski et al (eLife 2013). The construct was used to produce recombinant retroviruses using standard methods and the resulting viral supernatant was used to transduce HEK293T cells, which were then subsequently selected with puromycin to generate a stable cell line.
HEK293T cells carrying the ATF4 luciferase reporter were plated on polylysine coated 384-well plates (Greiner Bio-one) at 30,000 cells per well. Cells were treated the next day with 1 μg/mL tunicamycin and 200 nM of a compound of Formula (I) for 7 hours. Luminescence was measured using One Glo (Promega) as specified by the manufacturer. Cells were maintained in DMEM with L-glutamine supplemented with 10% heat-inactivated FBS (Gibco) and Antibiotic-Antimycotic solution (Gibco).
Table 2 below summarizes the EC50 data obtained using the ATF4-Luc assay for exemplary compounds of the invention.

SMILES | EC50 [nM]
O=C(COc1ccc(Cl)c(F)c1)N[C@@H]1CC[C@@H](C(=O)NCc2nc3cc(F)c(F)cc3[nH]2)OC1 [Compound 156, (2S,5R)-5-[2-(4-chloro-3-fluorophenoxy)acetamido]-N-[(5,6-difluoro-1H-benzimidazol-2-yl)methyl]oxane-2-carboxamide] | 50 to 250
O=C(COc1ccc(Cl)c(F)c1)N[C@@H]1CC[C@@H](C(=O)NCc2ccc(OC(F)(F)F)cc2)OC1 [Compound 157, (2S,5R)-5-[2-(4-chloro-3-fluorophenoxy)acetamido]-N-{[4-(trifluoromethoxy)phenyl]methyl}oxane-2-carboxamide] | 50 to 250
O=C(COc1ccc(Cl)c(F)c1)N[C@@H]1CC[C@@H](C(=O)NCc2ccc(C(F)(F)F)cc2)OC1 [Compound 158, (2S,5R)-5-[2-(4-chloro-3-fluorophenoxy)acetamido]-N-{[4-(trifluoromethyl)phenyl]methyl}oxane-2-carboxamide] | 50 to 250
O=C(COc1ccc(Cl)c(F)c1)N[C@H]1CC[C@H](C(=O)NCc2ccc(C(F)(F)F)cn2)OC1 [Compound 159, (2R,5S)-5-[2-(4-chloro-3-fluorophenoxy)acetamido]-N-{[5-(trifluoromethyl)pyridin-2-yl]methyl}oxane-2-carboxamide] | 10 to 50
O=C(COc1ccc(Cl)c(F)c1)N[C@@H]1CC[C@@H](C(=O)N2CC(c3ccc(Cl)cc3)C2)OC1 [Compound 160, 2-(4-chloro-3-fluorophenoxy)-N-{(3R,6S)-6-[3-(4-chlorophenyl)azetidine-1-carbonyl]oxan-3-yl}acetamide] | 10 to 50
O=C(COc1ccc(Cl)c(F)c1)NC1CCC(C(=O)NCc2ccc(C(F)(F)F)cn2)OC1 (stereo not drawn) [Compound 166, 5-[2-(4-chloro-3-fluorophenoxy)acetamido]-N-{[5-(trifluoromethyl)pyridin-2-yl]methyl}oxane-2-carboxamide] | > 2000
O=C(COc1ccc(Cl)c(F)c1)N[C@@H]1CC[C@@H](C(=O)NCc2ccc3c(c2)OC(F)(F)O3)OC1 [Compound 167, (2S,5R)-5-[2-(4-chloro-3-fluorophenoxy)acetamido]-N-[(2,2-difluoro-2H-1,3-benzodioxol-5-yl)methyl]oxane-2-carboxamide] | 50 to 250
O=C(COc1ccc(Cl)c(F)c1)N[C@H]1C[C@H](C(=O)Nc2ccc(OC(F)F)nc2)C1 [Compound 168, (1r,3r)-3-[2-(4-chloro-3-fluorophenoxy)acetamido]-N-[6-(difluoromethoxy)pyridin-3-yl]cyclobutane-1-carboxamide] | > 2000
O=C(COc1ccc(Cl)c(F)c1)N[C@H]1C[C@H](C(=O)NCc2ccc(Cl)cc2)C1 [Compound 169, (1r,3r)-3-[2-(4-chloro-3-fluorophenoxy)acetamido]-N-[(4-chlorophenyl)methyl]cyclobutane-1-carboxamide] | > 2000
O=C(COc1ccc(Cl)c(F)c1)N[C@H]1CC[C@H](C(=O)NCc2cc(OC3CCC3)ccn2)CC1 [Compound 170, (1r,4r)-4-[2-(4-chloro-3-fluorophenoxy)acetamido]-N-{[4-(cyclobutyloxy)pyridin-2-yl]methyl}cyclohexane-1-carboxamide] | > 2000
O=C(COc1ccc(Cl)c(F)c1)N[C@H]1CC[C@H](C(=O)NCc2cc(C(F)(F)F)ccn2)CC1 [Compound 171, (1r,4r)-4-[2-(4-chloro-3-fluorophenoxy)acetamido]-N-{[4-(trifluoromethyl)pyridin-2-yl]methyl}cyclohexane-1-carboxamide] | 50 to 250
NC(=O)c1ccc(CNC(=O)[C@H]2CC[C@H](NC(=O)COc3ccc(Cl)c(F)c3)CC2)nc1 [Compound 172, 6-[({(1r,4r)-4-[2-(4-chloro-3-fluorophenoxy)acetamido]cyclohexane-1-carbonyl}amino)methyl]pyridine-3-carboxamide] | > 2000
N#Cc1ccc(CNC(=O)[C@H]2CC[C@H](NC(=O)COc3ccc(Cl)c(Cl)c3)CC2)nc1 [Compound 173, (1r,4r)-N-[(5-cyanopyridin-2-yl)methyl]-4-[2-(3,4-dichlorophenoxy)acetamido]cyclohexane-1-carboxamide] | 50 to 250
O=C(COc1ccc(Cl)c(Cl)c1)N[C@@H]1CC[C@@H](C(=O)NCc2ccc(C(F)(F)F)cn2)OC1 [Compound 174, (2S,5R)-5-[2-(3,4-dichlorophenoxy)acetamido]-N-{[5-(trifluoromethyl)pyridin-2-yl]methyl}oxane-2-carboxamide] | 10 to 50
O=C(COc1ccc(Cl)c(Cl)c1)N[C@H]1CC[C@H](C(=O)NCc2ccc(Cl)cn2)CC1 [Compound 175, (1r,4r)-N-[(5-chloropyridin-2-yl)methyl]-4-[2-(3,4-dichlorophenoxy)acetamido]cyclohexane-1-carboxamide] | 50 to 250
O=C(COc1ccc(Cl)c(F)c1)N[C@H]1CC[C@H](C(=O)NCc2ccc(Cl)cn2)CC1 [Compound 176, (1r,4r)-4-[2-(4-chloro-3-fluorophenoxy)acetamido]-N-[(5-chloropyridin-2-yl)methyl]cyclohexane-1-carboxamide] | > 2000
O=C(COc1ccc(Cl)c(F)c1)N[C@H]1CC[C@H](C(=O)Nc2ccc(OC(F)(F)F)nc2)CC1 [Compound 177, (1r,4r)-4-[2-(4-chloro-3-fluorophenoxy)acetamido]-N-[6-(trifluoromethoxy)pyridin-3-yl]cyclohexane-1-carboxamide] | < 10
O=C(COc1ccc(Cl)c(F)c1)N[C@H]1CC[C@H](C(=O)NCCOc2ccc(Cl)c(F)c2)CC1 [Compound 178, (1r,4r)-4-[2-(4-chloro-3-fluorophenoxy)acetamido]-N-[2-(4-chloro-3-fluorophenoxy)ethyl]cyclohexane-1-carboxamide] | 10 to 50
O=C(COc1ccc(Cl)c(F)c1)N[C@H]1CC[C@H](C(=O)NCc2ccc3c(c2)OC(F)(F)O3)CC1 [Compound 179, (1r,4r)-4-[2-(4-chloro-3-fluorophenoxy)acetamido]-N-[(2,2-difluoro-2H-1,3-benzodioxol-5-yl)methyl]cyclohexane-1-carboxamide] | 10 to 50
O=C(COc1ccc(Cl)c(Cl)c1)N[C@H]1CC[C@H](C(=O)N(CCO)Cc2ccc(Cl)c(F)c2)CC1 [Compound 180, (1r,4r)-N-[(4-chloro-3-fluorophenyl)methyl]-4-[2-(3,4-dichlorophenoxy)acetamido]-N-(2-hydroxyethyl)cyclohexane-1-carboxamide] | 500 to 2000
O=C(COc1ccc(Cl)c(F)c1)N[C@H]1CC[C@H](C(=O)N(CCO)Cc2ccc(Cl)c(F)c2)CC1 [Compound 181, (1r,4r)-4-[2-(4-chloro-3-fluorophenoxy)acetamido]-N-[(4-chloro-3-fluorophenyl)methyl]-N-(2-hydroxyethyl)cyclohexane-1-carboxamide] | 500 to 2000
O=C(COc1ccc(Cl)c(Cl)c1)N[C@H]1CC[C@H](C(=O)NCc2cc(CO)ccn2)CC1 [Compound 182, (1r,4r)-4-[2-(3,4-dichlorophenoxy)acetamido]-N-{[4-(hydroxymethyl)pyridin-2-yl]methyl}cyclohexane-1-carboxamide] | > 2000
O=C(COc1ccc(Cl)c(Cl)c1)N[C@H]1CC[C@H](C(=O)NCc2ccc(C(F)(F)F)cn2)CC1 [Compound 183, (1r,4r)-4-[2-(3,4-dichlorophenoxy)acetamido]-N-{[5-(trifluoromethyl)pyridin-2-yl]methyl}cyclohexane-1-carboxamide] | < 10
O=C(COc1ccc(Cl)c(Cl)c1)N[C@H]1CC[C@H](C(=O)NCc2ccc(C(F)F)cn2)CC1 [Compound 184, (1r,4r)-4-[2-(3,4-dichlorophenoxy)acetamido]-N-{[5-(difluoromethyl)pyridin-2-yl]methyl}cyclohexane-1-carboxamide] | 10 to 50
O=C(COc1ccc(Cl)c(F)c1)N[C@@H]1CC[C@@H](C(=O)NCc2ccc(Cl)c(F)c2)OC1 [Compound 185, (2S,5R)-5-[2-(4-chloro-3-fluorophenoxy)acetamido]-N-[(4-chloro-3-fluorophenyl)methyl]oxane-2-carboxamide] | 10 to 50
O=C(COc1ccc(Cl)c(F)c1)N[C@@H]1CC[C@@H](C(=O)NCc2ccc(C(F)(F)F)cn2)OC1 [Compound 186, (2S,5R)-5-[2-(4-chloro-3-fluorophenoxy)acetamido]-N-{[5-(trifluoromethyl)pyridin-2-yl]methyl}oxane-2-carboxamide] | 10 to 50
O=C(COc1ccc(Cl)c(F)c1)N[C@H]1CC[C@H](C(=O)NCc2ccc(C(F)F)cn2)CC1 [Compound 187, (1r,4r)-4-[2-(4-chloro-3-fluorophenoxy)acetamido]-N-{[5-(difluoromethyl)pyridin-2-yl]methyl}cyclohexane-1-carboxamide] | 10 to 50
